Measured values published in PMC3666979, “Eliciting Renal Failure in Mosquitoes with a Small-Molecule Inhibitor of Inward-Rectifying Potassium Channels” (PLoS ONE, 2013).
Marks after values point to notes of the source that are not given here.

What was measured:
AeKir1 [1] = target: T1, AeKir1 (Aedes aegypti, UniProt L0EQS9); test: Whole-cell patch clamp of AeKir1 expressed in T-REx-HEK-293 cells; assay type: cell-based; details: for IC50: AeKir1-mediated currents, T-REx-HEK-293 cells
Experimental: T-REx-HEK293-AeKir1 cells were voltage clamped in the whole-cell configuration of the patch clamp technique after overnight induction with tetracycline (1 µg/ml). Patch electrodes were pulled from silanized 1.5 mm outer diameter borosilicate microhematocrit tubes using a Narishige PP-830 two-stage puller. Electrode resistance ranged from 2.5 to 3.5 MΩ when filled with the following intracellular solution (in mM): 135 KCl, 2 MgCl2, 1 EGTA, 10 HEPES free acid, 2 Na2ATP (Roche, Indianapolis, IN), pH 7.3, 275 mOsm. The standard bath solution contained (in mM): 135 NaCl, 5 KCl, 2 CaCl2, 1 MgCl2, 5 glucose, 10 HEPES free acid, pH 7.4, 290 mOsm. The high-K^+ bath contained (in mM): 90 NaCl, 50 KCl, 2 CaCl2, 1 MgCl2, 5 glucose, and 10 HEPES-free acid, pH 7.4, 290 mOsmol. Whole-cell currents were recorded under voltage-clamp conditions using an Axopatch 200B amplifier (Molecular Devices, Sunnyvale, CA). Electrical connections to the amplifier were made using Ag/AgCl wires and 3 M KCl/agar bridges. Electrophysiological data were collected at 5 kHz and filtered at 1 kHz. Data acquisition and analysis were performed using pClamp 9.2 software (Axon Instruments). After achieving stable whole-cell currents, VU573 or VU342 was applied intermittently or continuously for 2 to 10 min, followed by application of 2 mM BaCl2. All recordings were made at room temperature (20–23°C).

[2] = system: principal cells of isolated Malpighian tubules; test: Two-electrode voltage clamp of principal cells in isolated Malpighian tubules; assay type: cell-based, Aedes aegypti; details: for Rpc (kΩ) / Vbl (mV): VU573 10 µM or barium 5 mM, means ± SEM
Experimental: The basolateral membrane voltage (Vbl) and input resistance (Rpc) of principal cells were measured in isolated Malpighian tubules using two-electrode voltage clamping, as described previously. In each experiment, a single principal cell near the distal (blind) end of the tubule was impaled with two glass microelectrodes: one measured Vbl and the other injected current (Im). The Rpc of the impaled cell was calculated from current-voltage plots that were generated via voltage clamping (see ref. [25] for details). After recording a steady-state Vbl and Rpc (control) from the impaled cell, either VU573 (10 µM) or BaCl2 (5 mM) was added to the peritubular bath. The resulting Vbl and Rpc (treatment) were measured again upon reaching a new steady-state (usually 1–2 min later).
(§1) Data were analyzed using Prism 5 for Windows (Graphpad Software) and Excel (Microsoft Corp). To compare the rates of fluid secretion among control, vehicle, VU573, and VU342 treatments, a one-way ANOVA was performed with a Newman-Keuls posttest. To compare the Vbl and Rpc values of principal cells between control and treatment periods a paired t-test was performed.

[3] = system: adult female mosquitoes (Aedes aegypti); test: Mosquito toxicology: incapacitation 24 h after intrathoracic injection (69 nl); assay type: in vivo; details: for mosquitoes bloated (retained fluid) / % Incapacitated (flightless or dead): 69 nl of 10 mM in PBS/15% DMSO; for mosquitoes bloated (retained fluid): 24 h; for % Incapacitated (flightless or dead): within 24 hours
Experimental: (§2) Mosquitoes were first anesthetized on ice and then injected with 69 nl of fluid (see below) using a pulled-glass capillary attached to a nanoliter injector (Nanoject II, Drummond Scientific Company, Broomall, PA). The injected fluid was a sodium-based phosphate-buffered saline (Na^+-PBS) containing 15% DMSO and various concentrations of VU573 or VU342 to deliver the doses indicated in Figures 2A, 2C, and S3. The Na^+-PBS consisted of the following in mM: 137 NaCl, 2.7 KCl, 10 Na2HPO4, and 2 KH2PO4 (pH 7.5). After injection, the mosquitoes were placed in a small cage (10 females per cage) within a rearing chamber (28°C, 80% relative humidity, 12∶12 light∶dark) and allowed free access to a solution of 10% sucrose. The mosquitoes were observed 24 h after injection.
(§3) Data were analyzed using Prism 5 for Windows (Graphpad Software). To generate a dose-response curve for VU573, the doses (x-axis) were log transformed and then a non-linear curve was fitted to the data using the ‘log(agonist) vs. response’ algorithm. An ED50 was calculated from this curve. To compare 1) the incapacitating effects among the vehicle, VU573, and VU342 treatments, and 2) the rates of urine excretion among the control, vehicle, VU573, and VU342 treatments, one-way ANOVAs were performed with Newman-Keuls posttests. To compare the incapacitating effects between the vehicle and VU573 within each mosquito species, a paired t-test was used.

[4] = system: isolated Malpighian tubules; test: Fluid secretion by isolated Malpighian tubules (Ramsay method); set-up: species or system Aedes aegypti; details: 10 µM in peritubular bath, after 2 hours, high-potassium Ringer
Experimental: Fluid secretion rates from isolated Malpighian tubules (Ae. aegypti) were measured in vitro using the method described in [25], which is modified from that of Ramsay. In brief, isolated tubules were bathed in a 50 µl drop of a mosquito Ringer solution with elevated K^+ (see composition below), which was then covered with light mineral oil. A glass hook was used to pull the open proximal end of the tubule into the mineral oil where fluid was secreted. The diameter of the droplet was measured to calculate the secreted volumes.
In one set of tubules, the initial spontaneous rate of fluid secretion was calculated during the first 30 min (control). In another set of tubules, the rates of fluid secretion were determined 2 h after adding one of the following to the peritubular bath: the vehicle (0.05% DMSO), VU573 (10 µM), or VU342 (10 µM). The Ringer solution consisted of the following in mM: 119.4 NaCl, 34 KCl, 25 HEPES, 1.8 NaHCO3, 1.7 CaCl2, and 1.0 MgSO4, pH 7.1.
as §1

[5] = system: intact mosquitoes (Ae. aegypti); test: Urine excretion rate of intact mosquitoes after 900 nl HBS injection; assay type: in vivo, Aedes aegypti; details: 2 h
Experimental: Urine excretion rates from intact mosquitoes (Ae. aegypti) were measured using a method modified from the laboratory of Hansen. After anesthetizing mosquitoes on ice they were injected as described above with 900 nl of fluid (100 nl/s). The injected fluid was one of two HEPES-buffered saline (HBS) solutions containing 1.8% DMSO with 0.77 mM VU573 or 0.77 mM VU342. Vehicle controls received the respective HBS with DMSO alone. The Na^+-HBS consisted of the following in mM: 146 NaCl, 4.2 N-methyl-D-glucammonium (NMDG)-Cl, and 25 mM HEPES (pH 7.5). The K^+-HBS consisted of the following in mM: 10 mM NaCl, 75 mM KCl, 65.2 mM NMDG-Cl, and 25 mM HEPES (pH 7.5). After injection, mosquitoes were placed immediately in a graduated, packed-cell volume tube (MidSci, St. Louis, MO; 3 mosquitoes per tube) at room temperature. The mosquitoes were removed from the tubes with forceps after 2 h and the excreted urine was centrifuged into the graduated column of the tube for measurement. Uninjected control mosquitoes were handled exactly as above without the injection step. Data were analyzed using Prism 5 for Windows (Graphpad Software). To generate a dose-response curve for VU573, the doses (x-axis) were log transformed and then a non-linear curve was fitted to the data using the ‘log(agonist) vs. response’ algorithm. An ED50 was calculated from this curve. To compare 1) the incapacitating effects among the vehicle, VU573, and VU342 treatments, and 2) the rates of urine excretion among the control, vehicle, VU573, and VU342 treatments, one-way ANOVAs were performed with Newman-Keuls posttests. To compare the incapacitating effects between the vehicle and VU573 within each mosquito species, a paired t-test was used.

AeKir1 [6] = target: T1, AeKir1; test: Thallium (Tl+) flux assay of AeKir1 in T-REx-HEK-293 cells; assay type: cell-based; details: AeKir1-mediated Tl+ flux, means ± SEM
Experimental: Compound master antagonist plates were created by serial diluting compounds 1∶3 from 30 mM stocks in 100% DMSO using the BRAVO liquid handler (Agilent Technologies, Santa Clara, CA). Assay daughter plates were created using the ECHO 555 liquid hander (Labcyte, Sunnyvale, CA), transferring 240 nl from the master plate to the daughter plate for each well followed by addition of 40 µl of assay buffer resulting in antagonist compound concentration response curves starting at 200 µM (2× final concentration). […] Cell plates and daughter compound plates were loaded onto a kinetic imaging plate reader (FDSS 6000; Hamamatsu Corporation, Bridgewater, NJ). […] Appropriate baseline readings were taken (10 images at 1 Hz; excitation, 470±20 nm; emission, 540±30 nm) and 20 µl test compounds were added followed by 50 images at 1 Hz additional baseline. Following a 20 minute incubation period, baseline readings were taken for 10 seconds followed by addition of 10 µl of Tl^+ stimulus buffer. […] Data were analyzed using Excel (Microsoft Corp, Redmond, WA). […] The slope of the fluorescence increase beginning 5 s after Tl^+ addition and ending 15 s after Tl^+ addition was calculated. […] Potencies were calculated from fits using a four parameter logistic equation.

[7] = system: adult female Aedes albopictus; test: Mosquito toxicology: incapacitation 24 h after injection (69 nl); assay type: in vivo; details: 69 nl Na+-PBS with 10 mM
Experimental: as §2, §3
(§4) Supplementary file pone.0064905.s003.tif: Figure S3 Incapacitating effects of VU573 in three species of mosquitoes. Adult female mosquitoes were injected with Na^+- PBS (69 nl) containing the vehicle (15% DMSO) or VU573 (10 mM). ‘% Incapacitated’ refers to the proportion of mosquitoes that are flightless or dead within 24 h after injection. Values are means ± SEM (n = 4 independent trials of 10 mosquitoes). Statistical differences between vehicle and VU573-treated mosquitoes were determined by a paired t-test for each species. […]

[8] = system: adult female Anopheles gambiae; test: as above; assay type: in vivo; details: 69 nl Na+-PBS with 10 mM
Experimental: as §2, §3, §4

[9] = system: adult female Culex pipiens; test: as above; assay type: in vivo; details: 69 nl Na+-PBS with 10 mM
Experimental: as §2, §3, §4

[10] = system: adult female mosquitoes (Ae. aegypti); test: Mosquito mortality after 900 nl Na+- or K+-PBS injection; assay type: in vivo, Aedes aegypti
Experimental: A similar approach was used to determine the toxicity of VU573 after a stress to hemolymph Na^+ or K^+ homeostasis (Figure 2F). However, in these experiments each mosquito was injected with 900 nl of fluid (100 nl/s) and the mosquitoes were not given access to sucrose. The injected fluid was a Na^+-PBS or K^+-PBS containing 1.1% DMSO and 0.77 mM of VU573. Vehicle controls received the respective PBS with DMSO alone. The K^+-PBS consisted of the following in mM: 2.7 NaCl, 137 KCl, 2 Na2HPO4, and 10 KH2PO4 (pH 7.5).

[11] = 900 nl K+-HBS containing 0.77 mM compound
[12] = 900 nl Na+-HBS containing 0.77 mM compound
[13] = dose-response experiment, 24 h after injection
[14] = 10 µM peritubular, change vs control

T1 sequence (L0EQS9 entry or part of it): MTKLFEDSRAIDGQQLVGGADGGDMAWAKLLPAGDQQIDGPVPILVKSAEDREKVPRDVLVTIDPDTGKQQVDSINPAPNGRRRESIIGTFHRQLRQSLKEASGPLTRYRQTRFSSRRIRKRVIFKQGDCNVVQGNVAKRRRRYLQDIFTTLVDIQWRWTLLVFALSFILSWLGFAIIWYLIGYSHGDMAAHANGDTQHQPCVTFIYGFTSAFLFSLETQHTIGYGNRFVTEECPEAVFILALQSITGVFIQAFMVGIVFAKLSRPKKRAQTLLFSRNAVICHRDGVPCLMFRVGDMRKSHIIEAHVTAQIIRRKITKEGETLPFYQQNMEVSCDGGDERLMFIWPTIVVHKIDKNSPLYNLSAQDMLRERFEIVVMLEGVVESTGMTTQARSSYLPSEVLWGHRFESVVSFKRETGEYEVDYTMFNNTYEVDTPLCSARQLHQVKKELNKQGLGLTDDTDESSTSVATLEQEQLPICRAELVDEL

Structure (SMILES) | IC50 (AeKir1 [1]) [µM] | Rpc (kΩ) [2] | Vbl (mV) [2] | mosquitoes bloated (retained fluid) [3] | % Incapacitated (flightless or dead) [3] | rate of fluid secretion [4] | rate of urine excretion [5, 11] | rate of urine excretion [5, 12] [nL/min] | also measured
[Ba+2].[Cl-].[Cl-] [Barium, BaCl2, reference compound] | 10 | 322.8±31.0 ^d kΩ | −59.3±3.3 ^c mV | – | – | – | – | – | –
N=c1n(Cc2ccccc2)c2ccccc2n1CC(O)CN1CCOCC1 (centres unmarked) [VU342] | 112 ± 1.1 | – | – | none | less than 20% | no effect on the rate of fluid secretion | unaffected | 5.7 | times less potent than VU573 at inhibiting AeKir1 (AeKir1 [1]; ratio of IC50): 22 times; maximal inhibition of AeKir1 (AeKir1 [1]; requires 300 µM): ~65%
Cc1ccc(OCC(O)Cn2c(=N)n(Cc3ccccc3)c3ccccc32)cc1 (centres unmarked) [VU573] | 5.14 ± 1.2 | 255.3±15.4 ^a kΩ | −52.4±4.5 ^b mV | 10% | ~100% | 0.26 nL/min | 0.73 nL/min | 2.14 | IC50 (AeKir1 [6]): 15 µM; proportion of incapacitated mosquitoes that were dead [3, 13]: 7.7%; proportion of incapacitated mosquitoes that were flightless [3, 13]: 92.3%; proportion of incapacitated mosquitoes with greatly distended abdomens (bloated) [3, 13]: 3.6%; ED50 (incapacitated: flightless or dead) ([3]; within 24 h after injection of 69 nl PBS/15% DMSO into hemolymph): 53.6 pmol; incapacitating effect [7]: incapacitates these mosquitoes; incapacitating effect [8]: incapacitates these mosquitoes; incapacitating effect [9]: incapacitates these mosquitoes; hyperpolarization of basolateral membrane voltage (Vbl) [2, 14]: 7.0 mV; increase of input resistance (Rpc) [2, 14]: 5.7 kΩ; mortality compared to vehicle ([10]; 900 nl K+-PBS with 0.77 mM): significantly increases mortality; mortality compared to vehicle ([10]; 900 nl Na+-PBS with 0.77 mM): does not significantly increase mortality; flightlessness ([10]; 900 nl Na+-PBS with 0.77 mM, within 24 hours): renders them flightless
